# Measured values as given in patent US20260325533A1, “CDK INHIBITOR COMPOUNDS” (ALEKSIA THERAPEUTICS, INC., priority 2023, published 2026).
# Where two headings read alike, the source gives them in different places.
# Columns and labels:
# Assay type in all cases: biochemical
# CDK2/CCNE1 = CDK2/CCNE1 (Homo sapiens, UniProt P24941); assay: CDK2 homogeneous time-resolved fluorescence (HTRF) kinase assay; details: CDK2/CCNE
# Procedure, shortened: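 An HTRF format measures CDK2/CCNE1 (3 nM) phosphorylating a 4E-BP1 Thr37/46 peptide at high (1 mM) ATP. Reactions run one hour at 23 °C, then EDTA-quenched and probed with Eu-labelled phospho-specific antibody.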
# CDK1/CCNB1 = CDK1/CCNB1 (Homo sapiens, UniProt P06493); assay: CDK1 homogeneous time-resolved fluorescence (HTRF) kinase assay; details: CDK1/CCNB
# Sequence of CDK1/CCNB1 (P06493 whole entry): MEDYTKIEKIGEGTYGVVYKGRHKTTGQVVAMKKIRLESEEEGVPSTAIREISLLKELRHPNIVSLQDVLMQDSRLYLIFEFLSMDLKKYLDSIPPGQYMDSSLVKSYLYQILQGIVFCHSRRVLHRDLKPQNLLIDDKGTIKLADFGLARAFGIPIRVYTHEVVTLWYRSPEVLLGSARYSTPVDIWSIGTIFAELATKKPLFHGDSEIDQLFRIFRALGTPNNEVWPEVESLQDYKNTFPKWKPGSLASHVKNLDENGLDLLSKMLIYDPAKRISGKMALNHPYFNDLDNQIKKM
# Sequence of CDK1/CCNB1 (P14635 whole entry partner): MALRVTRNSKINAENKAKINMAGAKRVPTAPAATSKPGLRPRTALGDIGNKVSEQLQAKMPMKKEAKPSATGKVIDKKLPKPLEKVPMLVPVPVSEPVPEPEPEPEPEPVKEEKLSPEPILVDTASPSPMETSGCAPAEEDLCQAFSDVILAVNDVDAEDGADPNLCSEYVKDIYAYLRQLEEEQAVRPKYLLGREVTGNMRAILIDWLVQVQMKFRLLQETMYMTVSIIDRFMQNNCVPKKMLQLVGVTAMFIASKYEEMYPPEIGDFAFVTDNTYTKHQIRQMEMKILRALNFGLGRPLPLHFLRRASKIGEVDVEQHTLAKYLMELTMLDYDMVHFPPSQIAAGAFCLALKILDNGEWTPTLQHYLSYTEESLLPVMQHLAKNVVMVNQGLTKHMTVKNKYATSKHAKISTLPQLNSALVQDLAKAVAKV
# Procedure, shortened: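 CDK1/CCNB1 0.5 nM + cpd, 20 min 23 °C; add 1 mM ATP, 50 nM ULight-4E-BP1 peptide, 60 min 23 °C; stop 10 mM EDTA; 2 nM Eu-Ab, 60 min; HTRF 665 nm. 11-pt half-log, top 10 μM typical; IC50.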
# CDK4/CCND3 = CDK4/CCND3 (Homo sapiens, UniProt P11802); assay: CDK4 homogeneous time-resolved fluorescence (HTRF) kinase assay; details: CDK4/CCND
# Sequence of CDK4/CCND3 (P11802 whole entry): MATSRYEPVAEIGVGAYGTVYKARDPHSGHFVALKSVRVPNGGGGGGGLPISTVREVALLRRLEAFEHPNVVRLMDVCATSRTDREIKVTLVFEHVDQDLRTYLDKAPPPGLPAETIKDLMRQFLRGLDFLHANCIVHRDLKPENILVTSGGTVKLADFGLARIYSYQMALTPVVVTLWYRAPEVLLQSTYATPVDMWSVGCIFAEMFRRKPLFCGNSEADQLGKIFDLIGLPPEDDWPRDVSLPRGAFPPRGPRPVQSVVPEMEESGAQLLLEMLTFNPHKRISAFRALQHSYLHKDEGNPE
# Sequence of CDK4/CCND3 (P30281 whole entry partner): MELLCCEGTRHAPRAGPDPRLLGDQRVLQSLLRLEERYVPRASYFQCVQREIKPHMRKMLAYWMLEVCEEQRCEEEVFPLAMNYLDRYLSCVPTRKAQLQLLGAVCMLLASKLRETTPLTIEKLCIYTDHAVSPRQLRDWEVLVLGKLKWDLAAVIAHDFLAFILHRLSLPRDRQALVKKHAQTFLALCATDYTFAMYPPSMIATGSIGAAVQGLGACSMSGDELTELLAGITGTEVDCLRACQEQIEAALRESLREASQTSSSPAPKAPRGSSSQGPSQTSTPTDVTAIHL
# Procedure, shortened: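 TR-FRET read (665 nm, or 665/615 ratio) of 4E-BP1 Thr37/46 phosphorylation by 1.5 nM CDK4/CCND3 at 1 mM ATP, 50 nM ULight peptide, 1% DMSO. Reaction ran 60 min at 23 °C after 20 min compound–enzyme preincubation. IC50 from 11-point half-log dilutions, top 10 μM.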
# CDK6/CCND1 = CDK6/CCND1 (Homo sapiens, UniProt Q00534); assay: CDK6 homogeneous time-resolved fluorescence (HTRF) kinase assay; details: CDK6/CCND, 1 mM ATP
# Sequence of CDK6/CCND1 (Q00534 whole entry): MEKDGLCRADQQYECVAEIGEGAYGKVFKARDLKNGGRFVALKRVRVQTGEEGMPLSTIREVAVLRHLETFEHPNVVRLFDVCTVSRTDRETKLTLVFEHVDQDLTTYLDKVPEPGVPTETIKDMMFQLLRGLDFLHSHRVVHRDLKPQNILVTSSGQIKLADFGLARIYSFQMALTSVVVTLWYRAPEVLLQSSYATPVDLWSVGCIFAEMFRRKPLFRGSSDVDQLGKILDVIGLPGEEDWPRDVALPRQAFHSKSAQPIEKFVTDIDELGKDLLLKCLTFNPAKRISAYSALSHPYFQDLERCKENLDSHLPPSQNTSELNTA
# Sequence of CDK6/CCND1 (P24385 whole entry partner): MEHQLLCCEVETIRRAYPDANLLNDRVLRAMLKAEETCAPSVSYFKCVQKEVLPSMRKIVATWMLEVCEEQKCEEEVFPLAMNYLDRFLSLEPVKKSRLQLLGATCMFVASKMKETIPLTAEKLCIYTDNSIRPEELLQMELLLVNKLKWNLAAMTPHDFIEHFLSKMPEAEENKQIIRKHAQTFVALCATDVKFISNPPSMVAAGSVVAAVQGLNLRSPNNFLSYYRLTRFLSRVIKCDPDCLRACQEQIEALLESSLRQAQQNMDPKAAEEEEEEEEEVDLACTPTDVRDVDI
# Procedure, shortened: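 Assay conditions: HEPES buffer containing 10 mM MgCl2, 1 mM EGTA, 2 mM DTT, 0.01% Tween 20; 1 nM CDK6/CCND1, 50 nM peptide substrate, 1 mM ATP. Detection after 60 min reaction used 2 nM europium antibody with 340 nm excitation. Potency fitted from half-log series, 11 points.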
# [1] = <25 nM, read-out: CDK2/CCNE IC50, <25 nM
# [2] = >250 nM, read-out: CDK1/CCNB IC50 >250 nM
# [3] = >250 nM, read-out: CDK4/CCND IC50, >250 nM
# [4] = >250 nM, read-out: CDK6/CCND IC50, >250 nM
# [5] = 25-250 nM, read-out: CDK2/CCNE IC50, 25-250 nM
SMILES,IC50 (CDK2/CCNE1; [1]) [nM],IC50 (CDK1/CCNB1; [2]) [nM],IC50 (CDK4/CCND3; [3]) [nM],IC50 (CDK6/CCND1; [4]) [nM],IC50 (CDK2/CCNE1; [5]) [nM],"IC50 (CDK1/CCNB1; 25-250 nM, read-out: CDK1/CCNB IC50, 25-250 nM) [nM]","IC50 (CDK4/CCND3; 25-250 nM, read-out: CDK4/CCND IC50, 25-250 nM) [nM]","IC50 (CDK6/CCND1; 25-250 nM, read-out: CDK6/CCND IC50, 25-250 nM) [nM]"
"Cc1c(-c2nccc3cnc(Nc4ccc(NS(=O)(=O)c5nccs5)cc4)cc23)ccc2c1cnn2CC(C)(C)O [Ex 748, N-(4-((5-(1-(2-hydroxy-2-methylpropyl)-4-methyl-1H-indazol-5-yl)-2,6-naphthyridin-3-yl)amino)phenyl)thiazole-2-sulfonamide]",< 25,> 250,> 250,> 250,–,–,–,–
"Cc1c(-c2nccc3cnc(Nc4ccc(S(C)(=O)=O)c(Br)c4)cc23)ccc2c1cnn2CC(C)(C)O [Ex 749, 1-(5-(7-((3-bromo-4-(methylsulfonyl)phenyl)amino)-2,6-naphthyridin-1-yl)-4-methyl-1H-indazol-1-yl)-2-methylpropan-2-ol]",–,> 250,> 250,> 250,25 to 250,–,–,–
"Cc1c(-c2nccc3cnc(Nc4ccc(S(C)(=O)=O)cc4Br)cc23)ccc2c1cnn2CC(C)(C)O [Ex 750, 1-(5-(7-((2-bromo-4-(methylsulfonyl)phenyl)amino)-2,6-naphthyridin-1-yl)-4-methyl-1H-indazol-1-yl)-2-methylpropan-2-ol]",–,> 250,> 250,> 250,25 to 250,–,–,–
"Cc1c(-c2nccc3cnc(Nc4ccc(NS(=O)(=O)c5cccc(N6CCN(C)CC6)c5)cc4)cc23)ccc2c1cnn2CC(C)(C)O [Ex 751, N-(4-((5-(1-(2-hydroxy-2-methylpropyl)-4-methyl-1H-indazol-5-yl)-2,6-naphthyridin-3-yl)amino)phenyl)-3-(4-methylpiperazin-1-yl)benzenesulfonamide]",< 25,> 250,> 250,> 250,–,–,–,–
"Cc1c(-c2nccc3cnc(Nc4ccc(NS(=O)(=O)c5cccc(N6CCOCC6)c5)cc4)cc23)ccc2c1cnn2CC(C)(C)O [Ex 753, N-(4-((5-(1-(2-hydroxy-2-methylpropyl)-4-methyl-1H-indazol-5-yl)-2,6-naphthyridin-3-yl)amino)phenyl)-3-morpholinobenzenesulfonamide]",< 25,> 250,> 250,> 250,–,–,–,–
"Cc1c(-c2nccc3cnc(Nc4ccc(NS(=O)(=O)c5cccnn5)cc4)cc23)ccc2c1cnn2CC(C)(C)O [Ex 754, N-(4-((5-(1-(2-hydroxy-2-methylpropyl)-4-methyl-1H-indazol-5-yl)-2,6-naphthyridin-3-yl)amino)phenyl)pyridazine-3-sulfonamide]",< 25,–,–,–,–,25 to 250,25 to 250,25 to 250
"Cc1c(-c2nccc3cnc(Nc4ccc(S(=O)(=O)Nc5nccc(N6CCN(CCO)CC6)n5)cc4)cc23)ccc2c1cnn2CC(O)(C(F)(F)F)C(F)(F)F [Ex 755, N-(4-(4-(2-hydroxyethyl)piperazin-1-yl)pyrimidin-2-yl)-4-((5-(4-methyl-1-(3,3,3-trifluoro-2-hydroxy-2-(trifluoromethyl)propyl)-1H-indazol-5-yl)-2,6-naphthyridin-3-yl)amino)benzenesulfonamide]",< 25,> 250,> 250,> 250,–,–,–,–
"Cc1c(-c2nccc3cnc(Nc4ccc(S(=O)(=O)Nc5nccc(N6CCN(C)CC6)n5)cc4)cc23)ccc2c1cnn2CC(O)(C(F)(F)F)C(F)(F)F [Ex 756, 4-((5-(4-methyl-1-(3,3,3-trifluoro-2-hydroxy-2-(trifluoromethyl)propyl)-1H-indazol-5-yl)-2,6-naphthyridin-3-yl)amino)-N-(4-(4-methylpiperazin-1-yl)pyrimidin-2-yl)benzenesulfonamide]",< 25,> 250,> 250,> 250,–,–,–,–
"Cc1c(-c2ncc(F)c3cnc(Nc4ccc(S(C)(=O)=O)cc4)cc23)ccc2c1cnn2CC(O)(C(F)(F)F)C(F)(F)F [Ex 757, 1,1,1,3,3,3-hexafluoro-2-((5-(4-fluoro-7-((4-(methylsulfonyl)phenyl)amino)-2,6-naphthyridin-1-yl)-4-methyl-1H-indazol-1-yl)methyl)propan-2-ol]",–,> 250,> 250,> 250,25 to 250,–,–,–
